According to article PMC9981942, “Pharmacokinetics and tissue distribution of Ramulus Mori (Sangzhi) alkaloids in rats and its effects on liver enzyme activity” (Frontiers in Pharmacology, 2023):
Values joined by “and” are separate entries in the source; they are usually repeats but may differ in a detail not shown here. Equal values may be shown once. Read-outs that look alike come from different tables or passages of the source.

Legend:
[1] = Tissue distribution after single oral SZ-A (40 mg/kg) in SD rats, plasma and 12 tissues; format: in vivo
Description: (§1) Twenty SD rats were randomly classified into four groups corresponding to four-time points (5 and 30 min, 4 and 12 h) (n = 20; 5 animals per time point) that received SZ-A solution (40 mg/kg) via oral administration. After the completion of dose administration, plasma and tissue samples (derived from the heart, liver, spleen, lung, kidney, aortic blood vessels, brown adipose tissue, subcutaneous adipose tissue, abdominal adipose tissue, muscle (thigh skeletal muscle), pancreas, and brain) were collected at predetermined time points. Twenty-eight ICR mice were randomly classified into four groups (n = 7 per group) corresponding to four-time points (5 and 30 min, 4 and 12 h) that received SZ-A solution (20 mg/kg) via oral administration. After the completion of dose administration, tissue samples (derived from the heart, liver, spleen, lung, kidney, aortic blood vessels, brown adipose tissue, abdominal adipose tissue, muscle (thigh skeletal muscle), pancreas, and brain) were collected at predetermined time points.
(§2) Collected tissue samples were washed with normal saline. The surface moisture was removed by blotting gently with filter paper, and the weight was recorded. After adding an appropriate amount of normal saline, these tissue samples were ground into homogenates using a cryogenic grinder (JX-CL, Shanghai Jingxin, Shanghai, China). The obtained homogenates were stored at −80°C until LC-MS/MS analysis.
Primary pharmacokinetic parameters, including Cmax, Tmax, area under the plasma concentration-time curve (AUC), t1/2, clearance rate, and the apparent volume of distribution, were calculated using DAS 3.2.8 (Bio Guider Co., Shanghai, China).

[2] = set-up: method as in Yang et al., 2017; conditions: ref Yang et al., 2017, cited from earlier work
[3] = Tissue distribution after single oral SZ-A (20 mg/kg) in ICR mice; format: in vivo
Description: as §1, §2

[4] = molecular target: T1, rat CYP2C11 (Rattus norvegicus, UniProt P08683); test: Inhibition of CYP450s in rat liver microsomes, probe mephenytoin; conditions: RLMs; SZ-A 8.899 μg/mL, DNJ 20 μM, FA 5 μM, DAB 8 μM
T1 sequence (P08683 1-500): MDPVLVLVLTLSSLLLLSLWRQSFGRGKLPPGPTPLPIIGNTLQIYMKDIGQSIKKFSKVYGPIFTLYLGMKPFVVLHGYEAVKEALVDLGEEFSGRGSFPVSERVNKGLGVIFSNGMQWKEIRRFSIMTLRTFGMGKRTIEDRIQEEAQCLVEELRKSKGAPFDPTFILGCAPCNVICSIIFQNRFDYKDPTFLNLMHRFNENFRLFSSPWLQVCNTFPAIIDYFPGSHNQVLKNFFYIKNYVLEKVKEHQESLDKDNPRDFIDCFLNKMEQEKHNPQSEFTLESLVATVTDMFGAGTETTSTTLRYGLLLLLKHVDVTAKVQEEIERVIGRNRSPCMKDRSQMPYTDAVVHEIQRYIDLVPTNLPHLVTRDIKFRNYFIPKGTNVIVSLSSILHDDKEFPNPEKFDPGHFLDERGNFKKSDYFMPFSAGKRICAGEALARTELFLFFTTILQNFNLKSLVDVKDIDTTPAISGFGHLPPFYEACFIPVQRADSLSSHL

[5] = Sprague-Dawley, rat, Kidney, n=5
[6] = Sprague-Dawley, rat, Liver, n=5
[7] = Sprague-Dawley, rat, Pancreas, n=5
[8] = Sprague-Dawley, rat, Plasma, n=5
[9] = Sprague-Dawley, rat, muscle (thigh skeletal muscle), Muscle, n=5
[10] = rat, Abdominal adipose tissue, n=5
[11] = rat, Subcutaneous adipose tissue, n=5

time of distribution peak in the aortic vessel [1]: ≤ 5 min
AUC(0-t) ([1]; Aortic blood vessels, n=5): 0.962 ± 0.354 µg·h/mL
CLz ([1]; Plasma, n=5): 1.95 ± 0.26 L/h/kg
Vz ([1]; Plasma, n=5): 1.61 ± 0.24 L/kg
half-life ([1]; Sprague-Dawley, rat, Brown adipose tissue, n=5): 40.8 ± 0.6 min
AUC(0-t) ([1]; Sprague-Dawley, rat, Brown adipose tissue, n=5, read-out: AUC(0-t)): 0.716 ± 0.259 µg·h/mL
Tmax ([1]; Sprague-Dawley, rat, Brown adipose tissue, n=5, read-out: Tmax): 30 min
Cmax [1, 5]: 13.3 ± 2.89 µg/mL
half-life [1, 5]: 165 ± 30.6 min
AUC(0-t) ([1]; Sprague-Dawley, rat, Kidney, n=5, read-out: AUC(0-t)): 37.8 ± 7.17 µg·h/mL
Tmax ([1]; Sprague-Dawley, rat, Kidney, n=5, read-out: Tmax): 30 min
Cmax [1, 6]: 2.07 ± 0.396 µg/mL
half-life [1, 6]: 229 ± 44.4 min
AUC(0-t) ([1]; Sprague-Dawley, rat, Liver, n=5, read-out: AUC(0-t)): 8.12 ± 2.15 µg·h/mL
Tmax ([1]; Sprague-Dawley, rat, Liver, n=5, read-out: Tmax): 30 min
Cmax ([1]; Sprague-Dawley, rat, Lung, n=5): 0.2 ± 0.0223 µg/mL
half-life ([1]; Sprague-Dawley, rat, Lung, n=5): 31.8 ± 16.2 min
Tmax ([1]; Sprague-Dawley, rat, Lung, n=5, read-out: Tmax): 13.2 ± 14.4 min
Cmax [1, 7]: 0.122 ± 0.0169 µg/mL
half-life [1, 7]: 40.2 ± 2.4 min
AUC(0-t) ([1]; Sprague-Dawley, rat, Pancreas, n=5, read-out: AUC(0-t)): 0.854 ± 0.09 µg·h/mL
Tmax ([1]; Sprague-Dawley, rat, Pancreas, n=5, read-out: Tmax): 114 ± 115 min
Cmax [1, 8]: 0.973 ± 0.215 µg/mL
half-life [1, 8]: 34.2 ± 1.2 min
AUC(0-t) ([1]; Sprague-Dawley, rat, Plasma, n=5, read-out: AUC(0-t)): 2.36 ± 0.349 µg·h/mL
Tmax ([1]; Sprague-Dawley, rat, Plasma, n=5, read-out: Tmax): 30 min
Cmax [1, 9]: 0.188 ± 0.0384 µg/mL
half-life [1, 9]: 929 ± 700 min
AUC(0-t) ([1]; Sprague-Dawley, rat, muscle (thigh skeletal muscle), Muscle, n=5, read-out: AUC(0-t)): 1.55 ± 0.212 µg·h/mL
Tmax ([1]; Sprague-Dawley, rat, muscle (thigh skeletal muscle), Muscle, n=5, read-out: Tmax): 67.2 ± 97.2 min
Cmax [1, 10]: 0.212 ± 0.0582 µg/mL
half-life [1, 10]: 43.8 ± 3.6 min
AUC(0-t) ([1]; rat, Abdominal adipose tissue, n=5, read-out: AUC(0-t)): 0.46 ± 0.146 µg·h/mL
Tmax ([1]; rat, Abdominal adipose tissue, n=5, read-out: Tmax): 25.2 ± 11.4 min
Cmax ([1]; rat, Aortic blood vessels, n=5): 0.756 ± 0.536 µg/mL
half-life ([1]; rat, Aortic blood vessels, n=5): 27.6 ± 14.4 min
Tmax ([1]; rat, Aortic blood vessels, n=5, read-out: Tmax): 4.8 min
Cmax ([1]; rat, Brown adipose tissue, n=5): 0.269 ± 0.0828 µg/mL
Cmax ([1]; rat, Heart, n=5): 0.114 ± 0.0242 µg/mL
half-life ([1]; rat, Heart, n=5): 42.6 ± 0.6 min
AUC(0-t) ([1]; rat, Heart, n=5, read-out: AUC(0-t)): 0.469 ± 0.213 µg·h/mL
Tmax ([1]; rat, Heart, n=5, read-out: Tmax): 72 ± 94.2 min
AUC(0-t) ([1]; rat, Lung, n=5, read-out: AUC(0-t)): 0.333 ± 0.108 µg·h/mL
Cmax ([1]; rat, Spleen, n=5): 0.144 ± 0.0399 µg/mL
half-life ([1]; rat, Spleen, n=5): 45 ± 4.2 min
AUC(0-t) ([1]; rat, Spleen, n=5, read-out: AUC(0-t)): 0.294 ± 0.087 µg·h/mL
Tmax ([1]; rat, Spleen, n=5, read-out: Tmax): 30 min
Cmax [1, 11]: 0.112 ± 0.0415 µg/mL
half-life [1, 11]: 44.4 ± 1.8 min
AUC(0-t) ([1]; rat, Subcutaneous adipose tissue, n=5, read-out: AUC(0-t)): 0.232 ± 0.075 µg·h/mL
Tmax ([1]; rat, Subcutaneous adipose tissue, n=5, read-out: Tmax): 30 min
Tmax ([1]; rat, other tissues (not named), tissues not named separately for that alkaloid, read-out: time of peak concentration in other tissues (converted)): 30 min
accumulation in tissues ([1]; up to 12 h): no long-term accumulation
distribution in aortic vessels compared with other tissues [3]: lower than that in other tissues
tissues with the highest concentrations [3]: kidney, followed by the liver
effect on rat CYP2C11 [4]: mild activation effect
SMILES: OC[C@H]1NC[C@@H](O)[C@@H]1O [DAB, 1,4-dideoxy-1,4-imino-D-arabinitol]
tissues with the highest concentrations [1]: kidney, followed by the liver, aortic vessels, and brown adipose tissue
form excreted ([2]; material conservation within 24 h after oral administration of SZ-A): mainly excreted in their original forms
oral absolute bioavailability ([2]; rats, after oral administration of SZ-A): 78.23% and > 70%
pharmacokinetic profile versus dose ([2]; rats, oral SZ-A 20–500 mg/kg): non-linear pharmacokinetics
